Test results as given in the NIST ThermoML archive (doi:10.1016/j.jct.2018.09.024).
± gives the expanded uncertainty stated by the source.

How the values were obtained:
[1] = molar heat capacity at constant pressure; details: 101.33 kPa, Liquid, DSC
[2] = 101.33 kPa, Liquid, Laser flash apparatus

Row | SMILES | molar heat capacity at constant pressure ([1]; 303.15 K) [J/K/mol] | molar heat capacity at constant pressure ([1]; 313.15 K) [J/K/mol] | molar heat capacity at constant pressure ([1]; 323.15 K) [J/K/mol] | molar heat capacity at constant pressure ([1]; 333.15 K) [J/K/mol] | molar heat capacity at constant pressure ([1]; 343.15 K) [J/K/mol] | molar heat capacity at constant pressure ([1]; 353.15 K) [J/K/mol] | molar heat capacity at constant pressure ([1]; 363.15 K) [J/K/mol] | molar heat capacity at constant pressure ([1]; 373.15 K) [J/K/mol] | thermal diffusivity ([2]; 303.15 K) [m2/s] | thermal diffusivity ([2]; 313.15 K) [m2/s] | thermal diffusivity ([2]; 323.15 K) [m2/s] | thermal diffusivity ([2]; 333.15 K) [m2/s] | thermal diffusivity ([2]; 343.15 K) [m2/s] | thermal diffusivity ([2]; 353.15 K) [m2/s] | thermal diffusivity ([2]; 363.15 K) [m2/s] | thermal diffusivity ([2]; 373.15 K) [m2/s] | thermal diffusivity ([2]; 383.15 K) [m2/s] | thermal diffusivity ([2]; 393.15 K) [m2/s] | thermal diffusivity ([2]; 403.15 K) [m2/s] | further results
1 | CCCCCCCCCC(=O)OC [methyl decanoate] | 384.7 ± 16 | 387.6 ± 16 | 391.8 ± 16 | 396.7 ± 16 | 401.9 ± 16 | 407.3 ± 16 | 412.4 ± 17 | 417.2 ± 17 | 8.1e-08 ± 4.3e-09 | 7.99e-08 ± 4.3e-09 | 7.87e-08 ± 4.2e-09 | 7.75e-08 ± 4.1e-09 | 7.64e-08 ± 4.1e-09 | 7.52e-08 ± 4e-09 | 7.4e-08 ± 4e-09 | 7.28e-08 ± 3.9e-09 | 7.17e-08 ± 3.8e-09 | 7.05e-08 ± 3.8e-09 | 6.93e-08 ± 3.7e-09 | 
2 | CCCCCCCCCCCC(=O)OC [methyl dodecanoate] | 449 ± 18 | 452.8 ± 18 | 457.4 ± 19 | 462.6 ± 19 | 468.4 ± 19 | 474.5 ± 19 | 480.7 ± 20 | 486.8 ± 20 | 8.27e-08 ± 4.4e-09 | 8.15e-08 ± 4.3e-09 | 8.03e-08 ± 4.3e-09 | 7.91e-08 ± 4.2e-09 | 7.79e-08 ± 4.2e-09 | 7.67e-08 ± 4.1e-09 | 7.55e-08 ± 4e-09 | 7.43e-08 ± 4e-09 | 7.3e-08 ± 3.9e-09 | 7.18e-08 ± 3.8e-09 | 7.06e-08 ± 3.8e-09 | thermal diffusivity ([2]; 413.15 K): 6.94e-08 ± 3.7e-09 m2/s; thermal diffusivity ([2]; 423.15 K): 6.82e-08 ± 3.7e-09 m2/s
3 | CCCCCCC(=O)OC [methyl heptanoate] | 289.2 ± 12 | 292.5 ± 12 | 296.2 ± 12 | 300.1 ± 12 | 304.3 ± 12 | 308.6 ± 12 | 312.8 ± 13 | 316.9 ± 13 | 7.82e-08 ± 4.2e-09 | 7.71e-08 ± 4.1e-09 | 7.59e-08 ± 4.1e-09 | 7.48e-08 ± 4e-09 | 7.36e-08 ± 3.9e-09 | 7.25e-08 ± 3.9e-09 | 7.14e-08 ± 3.8e-09 |  |  |  |  | 
4 | CCCCCC(=O)OC [methyl hexanoate] | 246.4 ± 10 | 248.8 ± 10 | 251.5 ± 10 | 254.6 ± 10 | 257.9 ± 10 | 261.5 ± 11 | 265.5 ± 11 | 269.6 ± 11 | 7.76e-08 ± 4.1e-09 | 7.66e-08 ± 4.1e-09 | 7.56e-08 ± 4e-09 | 7.46e-08 ± 4e-09 |  |  |  |  |  |  |  | 
5 | CCCCCCCCC(=O)OC [methyl nonanoate] | 351.7 ± 14 | 354.7 ± 14 | 358.6 ± 15 | 363.1 ± 15 | 367.9 ± 15 | 372.8 ± 15 | 377.6 ± 15 | 382 ± 16 | 8.01e-08 ± 4.3e-09 | 7.89e-08 ± 4.2e-09 | 7.78e-08 ± 4.2e-09 | 7.66e-08 ± 4.1e-09 | 7.54e-08 ± 4e-09 | 7.43e-08 ± 4e-09 | 7.31e-08 ± 3.9e-09 | 7.19e-08 ± 3.9e-09 | 7.08e-08 ± 3.8e-09 |  |  | 
6 | CCCCCCCC(=O)OC [methyl octanoate] | 316.6 ± 13 | 320.5 ± 13 | 324.4 ± 13 | 328.7 ± 13 | 333.2 ± 14 | 337.8 ± 14 | 342.8 ± 14 | 347 ± 14 | 7.92e-08 ± 4.2e-09 | 7.81e-08 ± 4.2e-09 | 7.69e-08 ± 4.1e-09 | 7.57e-08 ± 4e-09 | 7.46e-08 ± 4e-09 | 7.34e-08 ± 3.9e-09 | 7.22e-08 ± 3.9e-09 | 7.11e-08 ± 3.8e-09 | 6.99e-08 ± 3.7e-09 |  |  | 
7 | CCCCCCCCCCC(=O)OC [methyl undecanoate] | 411.4 ± 17 | 415.9 ± 17 | 420.9 ± 17 | 426.1 ± 17 | 431.4 ± 18 | 436.7 ± 18 | 441.8 ± 18 | 446.5 ± 18 | 8.22e-08 ± 4.4e-09 | 8.1e-08 ± 4.3e-09 | 7.98e-08 ± 4.3e-09 | 7.86e-08 ± 4.2e-09 | 7.74e-08 ± 4.1e-09 | 7.62e-08 ± 4.1e-09 | 7.5e-08 ± 4e-09 | 7.38e-08 ± 4e-09 | 7.26e-08 ± 3.9e-09 | 7.14e-08 ± 3.8e-09 | 7.02e-08 ± 3.8e-09 | thermal diffusivity ([2]; 413.15 K): 6.9e-08 ± 3.7e-09 m2/s; thermal diffusivity ([2]; 423.15 K): 6.78e-08 ± 3.6e-09 m2/s
